Results reported in patent publication US5084082A, “Soybean plants with dominant selectable trait for herbicide resistance” (priority 1990, dated 1992).
Counter-ions that a name gives are not always drawn.

Experiments:
[1] = system: ALS of W23-10; experiment: In vitro ALS activity of leaf tissue in the presence of Compounds 8 and 9; format: biochemical, soybean; conditions: W23-10, 10 ppm
Source text: (§1) At approximately 1 month after transplantation, some of the selections appeared much healthier than others. For example, W4-4, W4-6, W6-1, W6-2, W6-4, W23-10, and W23-11 recovered very well from the seed soak treatment with Compound 8. These plants were suspected of having a higher level of ALS resistance to Compound 8 than did the parental material from which they were derived. The applicant was also interested to see if any of these selections were cross resistant to an imidazolinone herbicide such as Compound 9. To test this hypothesis, leaf tissue of the one-month-old M2 plants was sampled and assayed in vitro for ALS activity in the presence of Compound 8 and Compound 9. The ALS assay procedure was essentially identical to the previously described ALS assay except that the herbicide concentrations tested were 100 ppb Compound 8 and 10 ppm Compound 9. Williams and mutant W20 soybean plants were also assayed as control genotypes for comparison. Williams contains no genes conferring the ALS-based sulfonylurea resistance while W20 is homozygous for a single mutation conferring ALS-based sulfonylurea resistance.
(§2) Acetolactate synthase (ALS) was extracted from leaves of soybean plants growing vegetatively. The leaves were homogenized in 4 volumes of buffer containing 100 mM hepes (pH 7.5), 1 mM sodium pyruvate, 0.5 mM magnesium chloride, 0.5 mM thiamine pyrophosphate, […], 10% glycerol, 5% PVPP, and 0.2% mercaptoethanol. The homogenate was filtered through cheese cloth and centrifuged at 20,000 g for 20 min. ALS was precipitated from the supernatant with ammonium sulfate. The enzyme was collected between 20 and 60% saturation by centrifugation at 20,000 g for 20 min. The pellet was resuspended in buffer containing 100 mM Hepes, 1 mM sodium pyruvate, and 0.5 mM magnesium chloride, and desalted on PD-10 columns (Pharmacia) equilibrated with the same buffer. ALS assays were carried out in a final volume of 0.5 mL at 30° C. The final reaction mixture contained 100 mM Hepes (pH 7.5), 1 mM magnesium chloride, 60 mM sodium pyruvate, 0.4 mM thiaminepyrophosphate, […], and various concentrations of chlorsulfuron. The assays were initiated with the addition of enzyme ([…]) and terminated with the addition of […] of 6N sulfuric acid. The acidified reaction mixture was heated to 60° C. for 15 min, after which 0.5 mL of 0.5% (W/V) creatine and 0.5 mL of 5% (W/V) napthol (freshly prepared in 2.5 N sodium hydroxide) were added. The reaction mixtures were heated for an additional 15 min at 60° C., and the absorbance was read at 525 nm. Data are expressed in terms of % control (minus Compound 1) activity and are the average of two replications. Fisher's least significant difference (LSD) value (at the 95% level of confidence) was calculated for each Compound 1 concentration to determine the significance of genotype mean differences.

[2] = system: ALS of W6-2; experiment: as above; format: biochemical, soybean; conditions: W6-2, 10 ppm
Source text: as §1, §2

[3] = system: ALS of W20; experiment: as above; format: biochemical, soybean; conditions: W20, 10 ppm
Source text: as §1, §2

[4] = system: ALS of Williams; experiment: as above; format: biochemical, soybean; conditions: 10 ppm
Source text: as §1, §2

[5] = system: ALS of W6-1; experiment: as above; format: biochemical, soybean; conditions: W6-1, 10 ppm
Source text: as §1, §2

[6] = system: ALS of W23-11; experiment: as above; format: biochemical, soybean; conditions: W23-11, 10 ppm
Source text: as §1, §2

[7] = system: ALS of W6-4; experiment: as above; format: biochemical, soybean; conditions: W6-4, 10 ppm
Source text: as §1, §2

[8] = system: ALS of W4-6; experiment: as above; format: biochemical, soybean; conditions: W4-6, 10 ppm
Source text: as §1, §2

[9] = system: ALS of W4-5; experiment: as above; format: biochemical, soybean; conditions: W4-5, 10 ppm
Source text: as §1, §2

[10] = system: ALS of W4-4; experiment: as above; format: biochemical, soybean; conditions: W4-4, 10 ppm
Source text: as §1, §2

[11] = system: Williams 82; experiment: Test B postemergence cross resistance test; format: in vivo, soybean; conditions: Glycine max, post-emergence
Source text: (§3) In the second postemergence test, six true-breeding resistant mutant lines (W4, W17, W19, W20, W23, and W28) were compared to Williams 82 for cross resistance to a broad range of ALS inhibitors including eight sulfonylureas and three imidazolinones. Two seeds were planted in each 10 cm pot and allowed to grow to the second trifoliolate stage. Pots were not thinned back if both plants were at the proper stage. For each of 11 herbicides, two rates (Table VII) were selected based on previous data: the low rate was expected to cause significant injury (but not death) to Williams 82 and the high rate was expected to severely injure or kill Williams 82. All but a few line x rate treatments were replicated twice.
(§4) In both postemergence tests, plants were returned to the greenhouse after treatment and provided with ample light, moisture, and nutrients to support healthy plant growth. Two to three ratings per pot were recorded over a three-week period and averaged to obtain a single value for each pot For each herbicide, analysis of variance on injury ratings was performed separately. Fisher's least significant difference (LSD) was used to determine the significance of line mean differences at each herbicide rate using the 95% level of confidence. […]

[12] = system: mutant line W28; experiment: Test B postemergence cross resistance test; format: in vivo, soybean; conditions: Glycine max, post-emergence
Source text: as §3, §4

[13] = system: mutant line W23; experiment: Test B postemergence cross resistance test; format: in vivo, soybean; conditions: Glycine max, post-emergence
Source text: as §3, §4

[14] = system: mutant line W4; experiment: Test B postemergence cross resistance test; format: in vivo, soybean; conditions: Glycine max, post-emergence
Source text: as §3, §4

[15] = system: mutant line W19; experiment: Test B postemergence cross resistance test; format: in vivo, soybean; conditions: Glycine max, post-emergence
Source text: as §3, §4

[16] = system: mutant line W17; experiment: Test B postemergence cross resistance test; format: in vivo, soybean; conditions: Glycine max, post-emergence
Source text: as §3, §4

[17] = system: mutant line W20; experiment: Test B postemergence cross resistance test; format: in vivo, soybean; conditions: Glycine max, post-emergence
Source text: as §3
In both postemergence tests, plants were returned to the greenhouse after treatment and provided with ample light, moisture, and nutrients to support healthy plant growth. Two to three ratings per pot were recorded over a three-week period and averaged to obtain a single value for each pot For each herbicide, analysis of variance on injury ratings was performed separately. Fisher's least significant difference (LSD) was used to determine the significance of line mean differences at each herbicide rate using the 95% level of confidence.

[18] = system: W20; experiment: Field use rate test (Table VII-B); format: in vivo, soybean
[19] = system: WM82 (Williams); experiment: Field use rate test (Table VII-B); format: in vivo, soybean
[20] = system: W4-4; experiment: Field use rate test (Table VII-B); format: in vivo, soybean
[21] = system: Williams 82; experiment: Postemergence herbicide spray test of W4-4 (Table VII-A); format: in vivo, soybean; conditions: two weeks after treatment
Experimental: (§5) To investigate this hypothesis, a postemergence herbicide spray test was conducted to compare the reaction of W4-4 to both W20 and wild-type Williams. The applicant was particularly interested in the resistance of W4-4 to herbicide treatments that were injurious to both Williams and W20 in a previous test (Table VII). […] Twenty-four plants each of W4-4, W20, and Williams were planted in separate 10 cm pots and allowed to grow to the second trifoliolate stage. Each pot constituted a single experimental unit receiving a single herbicide treatment. Herbicide treatments (Table VIIA) were applied as described for the first postemergence test and were replicated twice. Control plants were sprayed with the spray carrier solution only (water with 0.25% X77 surfactant). At two weeks after treatment, each plant was rated for % herbicide injury as described in Table VIII. Analysis of variance on injury ratings was performed separately for each herbicide to calculate treatment means and standard errors. Fisher's least significant difference (LSD) was used to determine the significance of line means differences at each herbicide rate using the 95% level of confidence. […]

[22] = system: mutant W20; experiment: as above; format: in vivo, soybean; conditions: two weeks after treatment
Experimental: as §5

[23] = system: Mutant W4-4; experiment: as above; format: in vivo, soybean; conditions: two weeks after treatment
Experimental: as §5

SMILES: CC(C)C1(C)N=C(c2nc3ccccc3cc2C(=O)O)NC1=O (centres unmarked) [Compound 9, 2-[4,5-dihydro-4-methyl-4-(1-methylethyl)-5-oxo-1H-imidazol-2-Yl]-3-quinolinecarboxylic acid]
- uninhibited ALS activity as % of control [1]: 19.5 % of control
- uninhibited ALS activity as % of control [2]: 11.7 % of control
- uninhibited ALS activity as % of control [3]: 18.4 % of control
- uninhibited ALS activity as % of control [4]: 14.0 % of control
- uninhibited ALS activity as % of control [5]: 16.2 % of control
- uninhibited ALS activity as % of control [6]: 13.0 % of control
- uninhibited ALS activity as % of control [7]: 18.7 % of control
- uninhibited ALS activity as % of control [8]: 10.7 % of control
- uninhibited ALS activity as % of control [9]: 19.3 % of control
- uninhibited ALS activity as % of control [10]: 44.3 % of control
- pest or weed control at 250 g/ha ([11]; read-out: mean % injury): 8%
- pest or weed control at 1000 g/ha ([11]; read-out: mean % injury): 13%
- mean % injury to soybean at 250 g/ha ([12]; W28, 250 g/ha postemergence): 9%
- mean % injury to soybean at 1000 g/ha ([12]; W28, 1000 g/ha postemergence): 15%
- percent soybean injury at 250 g/ha ([13]; W23, 250 g/ha postemergence): 9%
- percent soybean injury at 1000 g/ha ([13]; W23, 1000 g/ha postemergence): 13%
- % crop injury at 250 g/ha ([14]; W4, 250 g/ha postemergence): 13%
- % crop injury at 1000 g/ha ([14]; W4, 1000 g/ha postemergence): 13%
- percent soybean crop injury at 250 g/ha ([15]; W19, 250 g/ha postemergence): 9%
- percent soybean crop injury at 1000 g/ha ([15]; W19, 1000 g/ha postemergence): 9%
- soybean crop injury (%) at 250 g/ha ([16]; W17, 250 g/ha postemergence): 0%
- soybean crop injury (%) at 1000 g/ha ([16]; W17, 1000 g/ha postemergence): 8%
- percent crop injury at 250 g/ha ([17]; W20, 250 g/ha postemergence): 5%
- percent crop injury at 1000 g/ha ([17]; W20, 1000 g/ha postemergence): 15%

SMILES: CC(C)C1(C)N=C(c2ncccc2C(=O)O)NC1=O (centres unmarked) [Compound 11, 2-[4,5-dihydro-4-methyl-4-(1-methylethyl)-5-oxo-1H-imidazol-2-yl]-3-pyridinecarboxylic acid, 1-methylethanamine salt]
- soybean crop injury at 16 g/ha ([11]; Wm 82, 16 g/ha postemergence): 49%
- soybean crop injury at 64 g/ha ([11]; Wm 82, 64 g/ha postemergence): 75%
- mean % injury to soybean at 16 g/ha ([12]; W28, 16 g/ha postemergence): 45%
- mean % injury to soybean at 64 g/ha ([12]; W28, 64 g/ha postemergence): 68%
- percent soybean injury at 16 g/ha ([13]; W23, 16 g/ha postemergence): 41%
- percent soybean injury at 64 g/ha ([13]; W23, 64 g/ha postemergence): 74%
- % crop injury at 16 g/ha ([14]; W4, 16 g/ha postemergence): 39%
- % crop injury at 64 g/ha ([14]; W4, 64 g/ha postemergence): 73%
- percent soybean crop injury at 16 g/ha ([15]; W19, 16 g/ha postemergence): 41%
- percent soybean crop injury at 64 g/ha ([15]; W19, 64 g/ha postemergence): 60%
- soybean crop injury (%) at 16 g/ha ([16]; W17, 16 g/ha postemergence): 39%
- soybean crop injury (%) at 64 g/ha ([16]; W17, 64 g/ha postemergence): 61%
- mean % injury ([18]; W20, 8 g/ha): 20%
- mean % injury ([18]; W20, 17.5 g/ha): 30%
- mean % injury ([18]; W20, 35 g/ha): 60%
- mean % injury ([19]; WM82, 8 g/ha): 50%
- mean % injury ([19]; WM82, 17.5 g/ha): 60%
- mean % injury ([19]; WM82, 35 g/ha): 75%
- mean % injury ([20]; W4-4, 8 g/ha): 0%
- mean % injury ([20]; W4-4, 17.5 g/ha): 5%
- mean % injury ([20]; W4-4, 35 g/ha): 25%
- percent crop injury at 16 g/ha ([17]; W20, 16 g/ha postemergence): 44%
- percent crop injury at 64 g/ha ([17]; W20, 64 g/ha postemergence): 61%
- mean % injury ([21]; WM82, 64 g/ha postemergence): 73%
- mean % injury ([21]; WM82, 125 g/ha postemergence): 83%
- mean % injury ([22]; W20, 64 g/ha postemergence): 48%
- mean % injury ([22]; W20, 125 g/ha postemergence): 80%
- mean % injury ([23]; W4-4, 64 g/ha postemergence): 38%
- mean % injury ([23]; W4-4, 125 g/ha postemergence): 53%
